Laboratory results reported in ChEMBL document CHEMBL1151757, “Synthesis, radiosynthesis, and biological evaluation of fluorine-18-labeled 2beta-carbo(fluoroalkoxy)-3beta-(3'-((Z)-2-haloethenyl)phenyl)nortropanes: candidate radioligands for in vivo imaging of the serotonin transporter with positron emission tomography” (J Med Chem, 2008).

What was measured:
[1] = Drug uptake in anesthetized cynomolgus monkey brain occipital lobe after 125 mins postinjection; format: ADME, organism-based, Macaca fascicularis; details: in vivo
[2] = Drug uptake in anesthetized cynomolgus monkey brain occipital lobe after 225 mins postinjection; format: ADME, organism-based, Macaca fascicularis; details: in vivo, 3.75 h
[3] = Drug uptake in anesthetized cynomolgus monkey brain frontal lobe after 235 mins postinjection; format: ADME, organism-based, Macaca fascicularis; details: in vivo
[4] = Ratio of drug uptake in midbrain to cerebellum in anesthetized cynomolgus monkey after 215 mins postinjection; format: ADME, organism-based, Macaca fascicularis; details: in vivo
[5] = Ratio of drug uptake in occipital lobe to cerebellum in anesthetized cynomolgus monkey after 105 mins postinjection; format: ADME, organism-based, Macaca fascicularis; details: in vivo, 1.75 h
Putamen [6] = experiment: Drug uptake in anesthetized cynomolgus monkey brain putamen after 135 mins postinjection; format: ADME, organism-based, Macaca fascicularis; details: in vivo, 2.25 h
Putamen [7] = experiment: Drug uptake in anesthetized cynomolgus monkey brain putamen after 155 mins postinjection; format: ADME, organism-based, Macaca fascicularis; details: in vivo
[8] = Ratio of drug uptake in occipital lobe to cerebellum in anesthetized cynomolgus monkey after 235 mins postinjection; format: ADME, organism-based, Macaca fascicularis; details: in vivo
[9] = Ratio of drug uptake in frontal lobe to cerebellum in anesthetized cynomolgus monkey after 3.5 mins postinjection; format: ADME, organism-based, Macaca fascicularis; details: in vivo
[10] = Ratio of drug uptake in frontal lobe to cerebellum in anesthetized cynomolgus monkey after 35 mins postinjection; format: ADME, organism-based, Macaca fascicularis; details: in vivo
Midbrain [11] = experiment: Drug uptake in anesthetized cynomolgus monkey brain midbrain after 145 mins postinjection; format: ADME, organism-based, Macaca fascicularis; details: in vivo
Midbrain [12] = experiment: Drug uptake in anesthetized cynomolgus monkey brain midbrain after 215 mins postinjection; format: ADME, organism-based, Macaca fascicularis; details: in vivo
Pons [13] = experiment: Drug uptake in anesthetized cynomolgus monkey brain pons after 6.5 mins postinjection; format: ADME, organism-based, Macaca fascicularis; details: in vivo
Pons [14] = experiment: Drug uptake in anesthetized cynomolgus monkey brain pons after 12.5 mins postinjection; format: ADME, organism-based, Macaca fascicularis; details: in vivo
Pons [15] = experiment: Drug uptake in anesthetized cynomolgus monkey brain pons after 18.5 mins postinjection; format: ADME, organism-based, Macaca fascicularis; details: in vivo
Pons [16] = experiment: Drug uptake in anesthetized cynomolgus monkey brain pons after 105 mins postinjection; format: ADME, organism-based, Macaca fascicularis; details: in vivo, 1.75 h
Medulla [17] = experiment: Drug uptake in anesthetized cynomolgus monkey brain medulla after 3.5 mins postinjection; format: ADME, organism-based, Macaca fascicularis; details: in vivo
Medulla [18] = experiment: Drug uptake in anesthetized cynomolgus monkey brain medulla after 6.5 mins postinjection; format: ADME, organism-based, Macaca fascicularis; details: in vivo
Medulla [19] = experiment: Drug uptake in anesthetized cynomolgus monkey brain medulla after 9.5 mins postinjection; format: ADME, organism-based, Macaca fascicularis; details: in vivo
Medulla [20] = experiment: Drug uptake in anesthetized cynomolgus monkey brain medulla after 22.5 mins postinjection; format: ADME, organism-based, Macaca fascicularis; details: in vivo, 0.375 h
Medulla [21] = experiment: Drug uptake in anesthetized cynomolgus monkey brain medulla after 45 mins postinjection; format: ADME, organism-based, Macaca fascicularis; details: in vivo, 0.75 h
Medulla [22] = experiment: Drug uptake in anesthetized cynomolgus monkey brain medulla after 95 mins postinjection; format: ADME, organism-based, Macaca fascicularis; details: in vivo
Medulla [23] = experiment: Drug uptake in anesthetized cynomolgus monkey brain medulla after 105 mins postinjection; format: ADME, organism-based, Macaca fascicularis; details: in vivo, 1.75 h
Medulla [24] = experiment: Drug uptake in anesthetized cynomolgus monkey brain medulla after 135 mins postinjection; format: ADME, organism-based, Macaca fascicularis; details: in vivo, 2.25 h
[25] = Ratio of drug uptake in putamen to cerebellum in anesthetized cynomolgus monkey after 165 mins postinjection; format: ADME, organism-based, Macaca fascicularis; details: in vivo, 2.75 h
Medulla [26] = experiment: Drug uptake in anesthetized cynomolgus monkey brain medulla after 215 mins postinjection; format: ADME, organism-based, Macaca fascicularis; details: in vivo
[27] = Drug uptake in anesthetized cynomolgus monkey brain cerebellum after 95 mins postinjection; format: ADME, organism-based, Macaca fascicularis; details: in vivo
Caudate [28] = experiment: Drug uptake in anesthetized cynomolgus monkey brain caudate after 15.5 mins postinjection; format: ADME, organism-based, Macaca fascicularis, Caudate nucleus; details: in vivo
Caudate [29] = experiment: Drug uptake in anesthetized cynomolgus monkey brain caudate after 18.5 mins postinjection; format: ADME, organism-based, Macaca fascicularis, Caudate nucleus; details: in vivo
Caudate [30] = experiment: Drug uptake in anesthetized cynomolgus monkey brain caudate after 35 mins postinjection; format: ADME, organism-based, Macaca fascicularis, Caudate nucleus; details: in vivo
Caudate [31] = experiment: Drug uptake in anesthetized cynomolgus monkey brain caudate after 45 mins postinjection; format: ADME, organism-based, Macaca fascicularis, Caudate nucleus; details: in vivo, 0.75 h
Caudate [32] = experiment: Drug uptake in anesthetized cynomolgus monkey brain caudate after 115 mins postinjection; format: ADME, organism-based, Macaca fascicularis, Caudate nucleus; details: in vivo
Caudate [33] = experiment: Drug uptake in anesthetized cynomolgus monkey brain caudate after 145 mins postinjection; format: ADME, organism-based, Macaca fascicularis, Caudate nucleus; details: in vivo
Caudate [34] = experiment: Drug uptake in anesthetized cynomolgus monkey brain caudate after 235 mins postinjection; format: ADME, organism-based, Macaca fascicularis, Caudate nucleus; details: in vivo
Putamen [35] = experiment: Drug uptake in anesthetized cynomolgus monkey brain putamen after 3.5 mins postinjection; format: ADME, organism-based, Macaca fascicularis; details: in vivo
Thalamus [36] = experiment: Drug uptake in anesthetized cynomolgus monkey brain thalamus after 6.5 mins postinjection; format: ADME, organism-based, Macaca fascicularis; set-up: unit not given here; details: in vivo
Putamen [37] = experiment: Drug uptake in anesthetized cynomolgus monkey brain putamen after 4.5 mins postinjection; format: ADME, organism-based, Macaca fascicularis; set-up: unit not given here; details: in vivo, 0.075 h
Putamen [38] = experiment: Drug uptake in anesthetized cynomolgus monkey brain putamen after 15.5 mins postinjection; format: ADME, organism-based, Macaca fascicularis; set-up: unit not given here; details: in vivo
Putamen [39] = experiment: Drug uptake in anesthetized cynomolgus monkey brain putamen after 22.5 mins postinjection; format: ADME, organism-based, Macaca fascicularis; set-up: unit not given here; details: in vivo, 0.375 h
Putamen [40] = experiment: Drug uptake in anesthetized cynomolgus monkey brain putamen after 85 mins postinjection; format: ADME, organism-based, Macaca fascicularis; set-up: unit not given here; details: in vivo
Thalamus [41] = experiment: Drug uptake in anesthetized cynomolgus monkey brain thalamus after 65 mins postinjection; format: ADME, organism-based, Macaca fascicularis; set-up: unit not given here; details: in vivo
Thalamus [42] = experiment: Drug uptake in anesthetized cynomolgus monkey brain thalamus after 165 mins postinjection; format: ADME, organism-based, Macaca fascicularis; set-up: unit not given here; details: in vivo, 2.75 h
Thalamus [43] = experiment: Drug uptake in anesthetized cynomolgus monkey brain thalamus after 215 mins postinjection; format: ADME, organism-based, Macaca fascicularis; set-up: unit not given here; details: in vivo
Midbrain [44] = experiment: Drug uptake in anesthetized cynomolgus monkey brain midbrain after 0.5 mins postinjection; format: ADME, organism-based, Macaca fascicularis; set-up: unit not given here; details: in vivo
Midbrain [45] = experiment: Drug uptake in anesthetized cynomolgus monkey brain midbrain after 6.5 mins postinjection; format: ADME, organism-based, Macaca fascicularis; set-up: unit not given here; details: in vivo
Midbrain [46] = experiment: Drug uptake in anesthetized cynomolgus monkey brain midbrain after 15.5 mins postinjection; format: ADME, organism-based, Macaca fascicularis; set-up: unit not given here; details: in vivo
Midbrain [47] = experiment: Drug uptake in anesthetized cynomolgus monkey brain midbrain after 95 mins postinjection; format: ADME, organism-based, Macaca fascicularis; set-up: unit not given here; details: in vivo
Midbrain [48] = experiment: Drug uptake in anesthetized cynomolgus monkey brain midbrain after 115 mins postinjection; format: ADME, organism-based, Macaca fascicularis; set-up: unit not given here; details: in vivo
[49] = Ratio of drug uptake in midbrain to cerebellum in anesthetized cynomolgus monkey after 9.5 mins postinjection; format: ADME, organism-based, Macaca fascicularis; details: in vivo

## O=C(OCC[18F])C1C2CCC(CC1c1cccc(/C=C\I)c1)N2 (centres undefined)
[1]
  Drug uptake: 1.97
[2]
  Drug uptake: 1.22
[3]
  Drug uptake: 1.39
[4]
  Ratio: 2.2
[5]
  Ratio: 1
Putamen [6]
  Drug uptake: 3.44
Putamen [7]
  Drug uptake: 3.13
[8]
  Ratio: 0.9
[9]
  Ratio: 0.6
[10]
  Ratio: 0.7
Midbrain [11]
  Drug uptake: 3.85
Midbrain [12]
  Drug uptake: 3.12
Pons [13]
  Drug uptake: 2.02
Pons [14]
  Drug uptake: 2.58
Pons [15]
  Drug uptake: 2.91
Pons [16]
  Drug uptake: 3.01
Medulla [17]
  Drug uptake: 1.08
Medulla [18]
  Drug uptake: 2.75
Medulla [19]
  Drug uptake: 3.15
Medulla [20]
  Drug uptake: 3.83
Medulla [21]
  Drug uptake: 4
Medulla [22]
  Drug uptake: 3.56
Medulla [23]
  Drug uptake: 3.58
Medulla [24]
  Drug uptake: 3.24
[25]
  Ratio: 1.8
Medulla [26]
  Drug uptake: 2.43
[27]
  Drug uptake: 2.61
Caudate [28]
  Drug uptake: 2.94
Caudate [29]
  Drug uptake: 3.07
Caudate [30]
  Drug uptake: 3.54
Caudate [31]
  Drug uptake: 3.67
Caudate [32]
  Drug uptake: 3.17
Caudate [33]
  Drug uptake: 2.75
Caudate [34]
  Drug uptake: 1.99
Putamen [35]
  Drug uptake: 0.96
Thalamus [36]
  Drug uptake: 2.49
Putamen [37]
  Drug uptake: 1.53
Putamen [38]
  Drug uptake: 3.61
Putamen [39]
  Drug uptake: 3.96
Putamen [40]
  Drug uptake: 4.16
Thalamus [41]
  Drug uptake: 4.26
Thalamus [42]
  Drug uptake: 2.91
Thalamus [43]
  Drug uptake: 2.38
Midbrain [44]
  Drug uptake: 0
Midbrain [45]
  Drug uptake: 2.99
Midbrain [46]
  Drug uptake: 4.07
Midbrain [47]
  Drug uptake: 4.55
Midbrain [48]
  Drug uptake: 4.18
[49]
  Ratio: 1
